# Data: US20180016593A1, “HERBICIDE-RESISTANT SUNFLOWER PLANTS, POLYNUCLEOTIDES ENCODING HERBICIDE-RESISTANT ACETOHYDROXYACID SYNTHASE LARGE SUBUNIT PROTEINS, AND METHODS OF USE” (priority 2005, published 2018)
# Legend:
# Test in all cases: Greenhouse whole-plant imazapir dose response (Example 8)
# Format in all cases: in vivo, Helianthus annuus
# [1] = tested on: sunflower GIM 5-6 (Restorer Line, A122T); conditions: GIM5-6, 14 DAT
# Protocol: (§1) A greenhouse study was conducted to quantify and contrast the imazapir sensivity of the mutants A122T and A205V in different genetic backgrounds at the whole plant level in sunflower. Seeds of the different sunflower lines that were used in this study were obtained under field conditions.
# (§2) Seeds were sown in Petri dishes and, after germination, plantlets were transplanted to pots of 10 cm of diameter in a potting media consisting of equal parts of vermiculite, soil and sand. Plants were grown in a greenhouse under natural light conditions supplemented with 400 W sodium halide lamps to provide a 16 hrs daylength. Day/night temperatures were 25 and 20° C., respectively. At the V2 stage 10 plants of each genotype were randomly assigned to each treatment consisting of […] imazapir doses (0, 40, 80, 160, 240, 320, 400 and 480 g ai/ha), and a zero-time biomass determination. Experiment was arranged as a randomized block design with a full factorial (sunflower line×treatment) arrangement of treatments and 10 replications.
# (§3) On the day of herbicide application ten plants of each genotype were cut at the cotyledonal node and dried at 60° C. for 48 hrs zero-time for dried weight determination.
# (§4) Height was determined as the distance between the cotyledonal node and the apex of each plant. For root biomass determination, each plant was taken from the pot and the potting media was washed out from the roots. Above ground biomass data from each line were converted to biomass accumulation after application by subtracting the appropriate average zero-time biomass from each sample. Dry biomass data were converted to percentages of the untreated control plants within each line to allow direct comparisons between groups. […]
# [2] = tested on: sunflower GIM 5-7 (Manteiner Line, A205V); conditions: GIM5-7, 14 DAT
# Protocol: as §1, §2, §3, §4
# [3] = tested on: sunflower GM1606 (Manteiner Line, A122T); conditions: 14 DAT
# Protocol: as §1, §2, §3, §4
# [4] = tested on: sunflower GM40 (Manteiner Line, A122T); conditions: 14 DAT
# Protocol: as §1, §2, §3, §4
# [5] = tested on: sunflower IB920 (Manteiner Line, A205V); conditions: 14 DAT
# Protocol: as §1, §2, §3, §4
# [6] = tested on: sunflower IR79 (Restorer Line, A205V); conditions: 14 DAT
# Protocol: as §1, §2, §3, §4
smiles,measurement,setting,value
CC(C)C1(C)N=C(c2ncccc2C(=O)O)NC1=O (centres unmarked) [imazapyr],biomass accumulation (above ground dry weight),[1]; 0.5x (40 g ai/ha),100.0 % of untreated plots
same,plant height,[1]; 0.5x (40 g ai/ha),100.0 % of untreated plots
same,root dry weight,[1]; 0.5x (40 g ai/ha),100 % of untreated plots
same,biomass accumulation (above ground dry weight),[1]; 1x (80 g ai/ha),96.4 % of untreated plots
same,plant height,[1]; 1x (80 g ai/ha),100.0 % of untreated plots
same,root dry weight,[1]; 1x (80 g ai/ha),88.0 % of untreated plots
same,biomass accumulation (above ground dry weight),[1]; 2x (160 g ai/ha),97.7 % of untreated plots
same,plant height,[1]; 2x (160 g ai/ha),99.1 % of untreated plots
same,root dry weight,[1]; 2x (160 g ai/ha),90.0 % of untreated plots
same,biomass accumulation (above ground dry weight),[1]; 3x (240 g ai/ha),95.8 % of untreated plots
same,plant height,[1]; 3x (240 g ai/ha),98.1 % of untreated plots
same,root dry weight,[1]; 3x (240 g ai/ha),98.0 % of untreated plots
same,biomass accumulation (above ground dry weight),[1]; 4x (320 g ai/ha),90.8 % of untreated plots
same,plant height,[1]; 4x (320 g ai/ha),91.0 % of untreated plots
same,root dry weight,[1]; 4x (320 g ai/ha),80.0 % of untreated plots
same,biomass accumulation (above ground dry weight),[1]; 5x (400 g ai/ha),81.9 % of untreated plots
same,plant height,[1]; 5x (400 g ai/ha),94.3 % of untreated plots
same,root dry weight,[1]; 5x (400 g ai/ha),80.0 % of untreated plots
same,biomass accumulation (above ground dry weight),[1]; 6x (480 g ai/ha),78.0 % of untreated plots
same,plant height,[1]; 6x (480 g ai/ha),85.8 % of untreated plots
same,root dry weight,[1]; 6x (480 g ai/ha),65.8 % of untreated plots
same,biomass accumulation (above ground dry weight),[2]; 0.5x (40 g ai/ha),92.9 % of untreated plots
same,plant height,[2]; 0.5x (40 g ai/ha),79.1 % of untreated plots
same,root dry weight,[2]; 0.5x (40 g ai/ha),79.2 % of untreated plots
same,biomass accumulation (above ground dry weight),[2]; 1x (80 g ai/ha),75.1 % of untreated plots
same,plant height,[2]; 1x (80 g ai/ha),76.7 % of untreated plots
same,root dry weight,[2]; 1x (80 g ai/ha),56.3 % of untreated plots
same,biomass accumulation (above ground dry weight),[2]; 2x (160 g ai/ha),55.1 % of untreated plots
same,plant height,[2]; 2x (160 g ai/ha),57.7 % of untreated plots
same,root dry weight,[2]; 2x (160 g ai/ha),40.6 % of untreated plots
same,biomass accumulation (above ground dry weight),[2]; 3x (240 g ai/ha),45.6 % of untreated plots
same,plant height,[2]; 3x (240 g ai/ha),55.3 % of untreated plots
same,root dry weight,[2]; 3x (240 g ai/ha),40.2 % of untreated plots
same,biomass accumulation (above ground dry weight),[2]; 4x (320 g ai/ha),31.8 % of untreated plots
same,plant height,[2]; 4x (320 g ai/ha),27.3 % of untreated plots
same,root dry weight,[2]; 4x (320 g ai/ha),34.0 % of untreated plots
same,biomass accumulation (above ground dry weight),[2]; 5x (400 g ai/ha),34.2 % of untreated plots
same,plant height,[2]; 5x (400 g ai/ha),37.2 % of untreated plots
same,root dry weight,[2]; 5x (400 g ai/ha),48.5 % of untreated plots
same,biomass accumulation (above ground dry weight),[2]; 6x (480 g ai/ha),36.8 % of untreated plots
same,plant height,[2]; 6x (480 g ai/ha),30.0 % of untreated plots
same,root dry weight,[2]; 6x (480 g ai/ha),43.1 % of untreated plots
same,biomass accumulation (above ground dry weight),[3]; 0.5x (40 g ai/ha),100.0 % of untreated plots
same,plant height,[3]; 0.5x (40 g ai/ha),97.0 % of untreated plots
same,root dry weight,[3]; 0.5x (40 g ai/ha),100 % of untreated plots
same,biomass accumulation (above ground dry weight),[3]; 1x (80 g ai/ha),100.0 % of untreated plots
same,plant height,[3]; 1x (80 g ai/ha),95.7 % of untreated plots
same,root dry weight,[3]; 1x (80 g ai/ha),100.0 % of untreated plots
same,biomass accumulation (above ground dry weight),[3]; 2x (160 g ai/ha),97.6 % of untreated plots
same,plant height,[3]; 2x (160 g ai/ha),95.2 % of untreated plots
same,root dry weight,[3]; 2x (160 g ai/ha),92.5 % of untreated plots
same,biomass accumulation (above ground dry weight),[3]; 3x (240 g ai/ha),95.4 % of untreated plots
same,plant height,[3]; 3x (240 g ai/ha),95.7 % of untreated plots
same,root dry weight,[3]; 3x (240 g ai/ha),85.2 % of untreated plots
same,biomass accumulation (above ground dry weight),[3]; 4x (320 g ai/ha),90.5 % of untreated plots
same,plant height,[3]; 4x (320 g ai/ha),94.1 % of untreated plots
same,root dry weight,[3]; 4x (320 g ai/ha),87.0 % of untreated plots
same,biomass accumulation (above ground dry weight),[3]; 5x (400 g ai/ha),85.3 % of untreated plots
same,plant height,[3]; 5x (400 g ai/ha),94.3 % of untreated plots
same,root dry weight,[3]; 5x (400 g ai/ha),88.1 % of untreated plots
same,biomass accumulation (above ground dry weight),[3]; 6x (480 g ai/ha),83.0 % of untreated plots
same,plant height,[3]; 6x (480 g ai/ha),91.4 % of untreated plots
same,root dry weight,[3]; 6x (480 g ai/ha),69.5 % of untreated plots
same,biomass accumulation (above ground dry weight),[4]; 0.5x (40 g ai/ha),96.5 % of untreated plots
same,plant height,[4]; 0.5x (40 g ai/ha),99.6 % of untreated plots
same,root dry weight,[4]; 0.5x (40 g ai/ha),100 % of untreated plots
same,biomass accumulation (above ground dry weight),[4]; 1x (80 g ai/ha),94.1 % of untreated plots
same,plant height,[4]; 1x (80 g ai/ha),97.4 % of untreated plots
same,root dry weight,[4]; 1x (80 g ai/ha),100 % of untreated plots
same,biomass accumulation (above ground dry weight),[4]; 2x (160 g ai/ha),97.6 % of untreated plots
same,plant height,[4]; 2x (160 g ai/ha),95.2 % of untreated plots
same,root dry weight,[4]; 2x (160 g ai/ha),100 % of untreated plots
same,biomass accumulation (above ground dry weight),[4]; 3x (240 g ai/ha),95.8 % of untreated plots
same,plant height,[4]; 3x (240 g ai/ha),93.0 % of untreated plots
same,root dry weight,[4]; 3x (240 g ai/ha),92.2 % of untreated plots
same,biomass accumulation (above ground dry weight),[4]; 4x (320 g ai/ha),88.3 % of untreated plots
same,plant height,[4]; 4x (320 g ai/ha),93.0 % of untreated plots
same,root dry weight,[4]; 4x (320 g ai/ha),98.1 % of untreated plots
same,biomass accumulation (above ground dry weight),[4]; 5x (400 g ai/ha),85.6 % of untreated plots
same,plant height,[4]; 5x (400 g ai/ha),93.9 % of untreated plots
same,root dry weight,[4]; 5x (400 g ai/ha),84.2 % of untreated plots
same,biomass accumulation (above ground dry weight),[4]; 6x (480 g ai/ha),76.8 % of untreated plots
same,plant height,[4]; 6x (480 g ai/ha),84.3 % of untreated plots
same,root dry weight,[4]; 6x (480 g ai/ha),74.3 % of untreated plots
same,biomass accumulation (above ground dry weight),[5]; 0.5x (40 g ai/ha),93.9 % of untreated plots
same,plant height,[5]; 0.5x (40 g ai/ha),96.2 % of untreated plots
same,root dry weight,[5]; 0.5x (40 g ai/ha),94.0 % of untreated plots
same,biomass accumulation (above ground dry weight),[5]; 1x (80 g ai/ha),87.9 % of untreated plots
same,plant height,[5]; 1x (80 g ai/ha),80.0 % of untreated plots
same,root dry weight,[5]; 1x (80 g ai/ha),89.6 % of untreated plots
same,biomass accumulation (above ground dry weight),[5]; 2x (160 g ai/ha),58.8 % of untreated plots
same,plant height,[5]; 2x (160 g ai/ha),61.5 % of untreated plots
same,root dry weight,[5]; 2x (160 g ai/ha),50.7 % of untreated plots
same,biomass accumulation (above ground dry weight),[5]; 3x (240 g ai/ha),48.4 % of untreated plots
same,plant height,[5]; 3x (240 g ai/ha),40.9 % of untreated plots
same,root dry weight,[5]; 3x (240 g ai/ha),37.3 % of untreated plots
same,biomass accumulation (above ground dry weight),[5]; 4x (320 g ai/ha),35.5 % of untreated plots
same,plant height,[5]; 4x (320 g ai/ha),27.9 % of untreated plots
same,root dry weight,[5]; 4x (320 g ai/ha),32.8 % of untreated plots
same,plant height,[5]; 5x (400 g ai/ha),30.0 % of untreated plots
same,root dry weight,[5]; 5x (400 g ai/ha),25.4 % of untreated plots
same,biomass accumulation (above ground dry weight),[5]; 6x (480 g ai/ha),29.4 % of untreated plots
same,plant height,[5]; 6x (480 g ai/ha),27.1 % of untreated plots
same,root dry weight,[5]; 6x (480 g ai/ha),19.4 % of untreated plots
same,biomass accumulation (above ground dry weight),[6]; 0.5x (40 g ai/ha),94.4 % of untreated plots
same,plant height,[6]; 0.5x (40 g ai/ha),92.8 % of untreated plots
same,root dry weight,[6]; 0.5x (40 g ai/ha),98.6 % of untreated plots
same,biomass accumulation (above ground dry weight),[6]; 1x (80 g ai/ha),74.0 % of untreated plots
same,plant height,[6]; 1x (80 g ai/ha),80.9 % of untreated plots
same,root dry weight,[6]; 1x (80 g ai/ha),53.4 % of untreated plots
same,biomass accumulation (above ground dry weight),[6]; 2x (160 g ai/ha),67.7 % of untreated plots
same,plant height,[6]; 2x (160 g ai/ha),74.9 % of untreated plots
same,root dry weight,[6]; 2x (160 g ai/ha),42.5 % of untreated plots
same,biomass accumulation (above ground dry weight),[6]; 3x (240 g ai/ha),49.1 % of untreated plots
same,plant height,[6]; 3x (240 g ai/ha),55.7 % of untreated plots
same,root dry weight,[6]; 3x (240 g ai/ha),38.4 % of untreated plots
same,biomass accumulation (above ground dry weight),[6]; 4x (320 g ai/ha),44.5 % of untreated plots
same,plant height,[6]; 4x (320 g ai/ha),52.8 % of untreated plots
same,root dry weight,[6]; 4x (320 g ai/ha),31.5 % of untreated plots
same,biomass accumulation (above ground dry weight),[6]; 5x (400 g ai/ha),40.1 % of untreated plots
same,plant height,[6]; 5x (400 g ai/ha),41.7 % of untreated plots
same,root dry weight,[6]; 5x (400 g ai/ha),23.3 % of untreated plots
same,biomass accumulation (above ground dry weight),[6]; 6x (480 g ai/ha),35.3 % of untreated plots
same,plant height,[6]; 6x (480 g ai/ha),33.2 % of untreated plots
same,root dry weight,[6]; 6x (480 g ai/ha),21.9 % of untreated plots
